Test system: subjects with d-IBS
Assay: Adequate relief of IBS symptoms and bloating (weekly yes/no questions), rifaximin BID study in d-IBS
Format: in vivo, human
Conditions: for Adequate Relief of Bloating: Success / Adequate Relief of IBS symptoms: Success: end of the Treatment Phase; for Percentage of Subjects with Adequate Relief of Bloating Symptom / Percentage of Subjects with Adequate Relief of IBS Symptoms: RFX 550 mg BID 14 days, ITT N = 191; for Percentage of Subjects with Adequate Relief of Bloating Symptom: at least two of the final three weeks of treatment phase; for Percentage of Subjects with Adequate Relief of IBS Symptoms: at least two of the final three weeks of treatment phase (Weeks 1 to 4); for Adequate Relief of Bloating, Post Treatment: Failures / Adequate Relief of Bloating, Post Treatment: Success / Adequate Relief of Bloating, Post Treatment: Failure: RFX 550 2w (N = 54); for Patients with adequate relief of bloating / Patients with adequate relief of global IBS symptoms: rifaximin 550 mg twice daily 14 days
Method: This example relates to a study of rifaximin in subjects with d-IBS. […] There were two measures of efficacy assessed. Subjects were questioned on the relief of overall IBS symptoms and bloating. […] The analyses defined success as a “yes” response to questions regarding adequate relief.
All subpopulations in the study responded to therapy. Baseline severity was determined using 7-point Lickert scales during screening for Abdominal Pain/Discomfort and Bloating, and the number, type (normal, hard, loose) and urgency of bowel movements.
Duration of effect was assessed in a follow-up period. Subjects that responded in the 4 week treatment period were followed for an additional 3 months.
The effect of treatment on the percentage of subjects who reported adequate relief of IBS and bloating symptoms for at least two of the final three weeks during the treatment phase (Weeks 1 to 4) is shown in Tables 5-7 and FIGS. 4-6 below.
The study assessed the effect over 12 weeks of follow-up on long-term adequate relief. Subjects who had adequate relief by Week 4 and remained symptom-free at Week 5 were followed during the post-treatment phase and shown in FIGS. 1 and 2. Superiority to placebo was maintained during the 12 weeks post-treatment follow-up. Results for IBS symptoms were RFX 550 mg BID 62.3% versus placebo 49.2%, and RFX 550 mg BID 59.3% versus 50.9% for placebo for the symptom of bloating through week 16. In assessing the follow-up data, there was statistical significance (p<0.05) of bloating and IBS symptoms for RFX 550 mg BID versus placebo.
Two measures of efficacy were assessed independently. The first was the proportion of subjects who provided a ‘yes’ response to the weekly SGA question: “In the past 7 days, have you had adequate relief of your IBS symptoms? (yes/no)”. The second endpoint was the proportion of subjects who provide a ‘yes’ response to the weekly individual symptom question: “In the past 7 days, have you had adequate relief of your symptom of bloating? (yes/no)”. Durability was based on the proportion of subjects that had adequate relief over the entire treatment phase.
It is reported herein that the severity of baseline symptoms of abdominal pain and bloating influenced the response to rifaximin treatment. The co-primary endpoints in this analysis assessed weekly yes/no responses to questions regarding adequate relief of global IBS symptoms and IBS-associated bloating. Severity of baseline IBS symptoms was evaluated as a potential confounder of clinical response and was categorized as mild/moderate or severe based on a mean score of ≦4 vs. >4 (on a 7-point scale) for bloating and abdominal pain.
The Weekly yes/no responses to questions regarding adequate relief of global IBS symptoms and IBS-associated bloating were assessed. Clinical response was defined as adequate relief for 2 of the final 3 treatment weeks (wk 2, 3, or 4). Severity of baseline IBS symptoms was evaluated as a potential confounder of clinical response and was categorized as mild/moderate or severe based on a mean score of ≦4 versus >4 (on a 7-point scale (0=not bothersome; 6=very bothersome)) for bloating and abdominal pain.

[1] = patients with mild/moderate abdominal pain at baseline
[2] = patients with mild/moderate bloating at baseline

Question: How did the “Adequate Relief of IBS symptoms: Failure” value (Female, RFX 1100 2w) turn out when `CO[C@H]1/C=C/O[C@@]2(C)Oc3c(C)c(O)c4c(O)c(c5c(nc6cc(C)ccn65)c4c3C2=O)NC(=O)/C(C)=C\C=C\[C@H](C)[C@H](O)[C@@H](C)[C@@H](O)[C@@H](C)[C@H](OC(C)=O)[C@@H]1C` [Rifaximin, (2S,16Z,18E,20S,21S,22R, 23R,24R,25S,26S,27S,28E)-5,6,21,23,25 Pentahydroxy-27-methoxy-2,4,11,16,20,22,24,26-octamethyl-2,7-(epoxypentadeca-(1,11,13)trienimino) benzofuro (4,5-e) pyrido(1,2,-a) benzimidazole-1,15(2H)-dione,25-acetate] was run?
Answer: 44 (60.3%)

Question: What about the “Adequate Relief of Bloating: Success” value (Female, RFX 1100 2w) of the same molecule?
Answer: 28 (38.4%)

Question: And the “Adequate Relief of IBS symptoms: Success” value (Female, RFX 1100 2w)?
Answer: 29 (39.7%)

Question: And the “Treatment effect, Bloating” value (Gender F)?
Answer: 3.9%

Question: What about the “Treatment effect, IBS Sx” value (Gender F) of the same molecule?
Answer: 3.5%

Question: And the “Treatment effect, Bloating” value (Gender M)?
Answer: 13.6%

Question: And the “Treatment effect, IBS Sx” value (Gender M)?
Answer: 21%

Question: What about the “Adequate Relief of Bloating: Failure” value (Male, RFX 275 2w) of the same molecule?
Answer: 8 (57.1%)

Question: What about the “Adequate Relief of IBS symptoms: Failure” value (Male, RFX 275 2w) of the same molecule?
Answer: 9 (64.3%)

Question: And the “Adequate Relief of Bloating: Success” value (Male, RFX 275 2w)?
Answer: 6 (42.9%)

Question: And the “Adequate Relief of IBS symptoms: Success” value (Male, RFX 275 2w)?
Answer: 5 (35.7%)

Question: What about the “Adequate Relief of Bloating: Failure” value (Male, RFX 550 2w) of the same molecule?
Answer: 29 (53.7%)

Question: And the “Adequate Relief of IBS symptoms: Failure” value (Male, RFX 550 2w)?
Answer: 25 (46.3%)

Question: And the “Adequate Relief of Bloating: Success” value (Male, RFX 550 2w)?
Answer: 25 (46.3%)

Question: And the “Adequate Relief of IBS symptoms: Success” value (Male, RFX 550 2w)?
Answer: 29 (53.7%)

Question: What about the “Adequate Relief of Bloating: Failure” value (Male, RFX 550 4w) of the same molecule?
Answer: 16 (72.7%)

Question: And the “Adequate Relief of IBS symptoms: Failure” value (Male, RFX 550 4w)?
Answer: 15 (68.2%)

Question: What about the “Adequate Relief of Bloating: Success” value (Male, RFX 550 4w) of the same molecule?
Answer: 6 (27.3%)

Question: What about the “Adequate Relief of IBS symptoms: Success” value (Male, RFX 550 4w) of the same molecule?
Answer: 7 (31.8%)

Question: What about the “Adequate Relief of Bloating: Failure” value (Male, RFX 1100 2w) of the same molecule?
Answer: 16 (61.5%)

Question: And the “Adequate Relief of IBS symptoms: Failure” value (Male, RFX 1100 2w)?
Answer: 14 (53.8%)

Question: What about the “Adequate Relief of Bloating: Success” value (Male, RFX 1100 2w) of the same molecule?
Answer: 10 (38.5%)

Question: And the “Adequate Relief of IBS symptoms: Success” value (Male, RFX 1100 2w)?
Answer: 12 (46.2%)

Question: What about the “Percentage of Subjects with Adequate Relief of Bloating Symptom” value of the same molecule?
Answer: 46%

Question: What about the “Percentage of Subjects with Adequate Relief of IBS Symptoms” value of the same molecule?
Answer: 52%

Question: And the “Percentage of Subjects with Adequate Relief of IBS Symptoms” value (listed as RFX)?
Answer: 52.4%

Question: What about the “Percentage of Subjects with Adequate Relief of Bloating Symptom” value (listed as RFX) of the same molecule?
Answer: 46.1%

Question: What about the “Adequate Relief of Bloating, Post Treatment: Failures” value (from here on “Adequate Relief … Failures”) (Week 6) of the same molecule?
Answer: (9.3%)

Question: And the “Adequate Relief of Bloating, Post Treatment: Success” value (Week 6)?
Answer: (90.7%)

Question: What about the “Adequate Relief … Failures” value (Week 7) of the same molecule?
Answer: (16.7%)

Question: And the “Adequate Relief of Bloating, Post Treatment: Success” value (Week 7)?
Answer: (83.3%)

Question: What about the “Adequate Relief … Failures” value (Week 8) of the same molecule?
Answer: (13.0%)

Question: And the “Adequate Relief of Bloating, Post Treatment: Success” value (Week 8)?
Answer: (87.0%)

Question: And the “Adequate Relief … Failures” value (Week 9)?
Answer: (27.8%)

Question: What about the “Adequate Relief of Bloating, Post Treatment: Success” value (Week 9) of the same molecule?
Answer: (72.2%)

Question: What about the “Adequate Relief … Failures” value (Week 10) of the same molecule?
Answer: (27.8%)

Question: And the “Adequate Relief of Bloating, Post Treatment: Success” value (Week 10)?
Answer: (72.2%)

Question: And the “Adequate Relief … Failures” value (Week 11)?
Answer: (35.2%)

Question: What about the “Adequate Relief of Bloating, Post Treatment: Success” value (Week 11) of the same molecule?
Answer: (64.8%)

Question: And the “Adequate Relief of Bloating, Post Treatment: Failure” value (Week 12)?
Answer: (33.3%)

Question: And the “Adequate Relief of Bloating, Post Treatment: Success” value (Week 12)?
Answer: (66.7%)

Question: And the “Adequate Relief of Bloating, Post Treatment: Failure” value (Week 13)?
Answer: (38.9%)

Question: What about the “Adequate Relief of Bloating, Post Treatment: Success” value (Week 13) of the same molecule?
Answer: (61.1%)

Question: And the “Adequate Relief of Bloating, Post Treatment: Failure” value (Week 14)?
Answer: (37.0%)

Question: And the “Adequate Relief of Bloating, Post Treatment: Success” value (Week 14)?
Answer: (63.0%)

Question: What about the “Adequate Relief of Bloating, Post Treatment: Failure” value (Week 15) of the same molecule?
Answer: (42.6%)

Question: What about the “Adequate Relief of Bloating, Post Treatment: Success” value (Week 15) of the same molecule?
Answer: (57.4%)

Question: And the “Adequate Relief of Bloating, Post Treatment: Failure” value (Week 16)?
Answer: (40.7%)

Question: What about the “Treatment effect, IBS Sx” value (aIBS) of the same molecule?
Answer: 31.4%*, 31.4%

Question: And the “Treatment effect, Bloating” value (dIBS only)?
Answer: 4.5%

Question: And the “Treatment effect, IBS Sx” value (dIBS only)?
Answer: 6.3%

Question: And the “Patients with adequate relief of bloating” value [1]?
Answer: 44%

Question: And the “Patients with adequate relief of global IBS symptoms” value [1]?
Answer: 50%

Question: What about the “Patients with adequate relief of bloating” value [2] of the same molecule?
Answer: 47%

Question: And the “Patients with adequate relief of global IBS symptoms” value [2]?
Answer: 56%

Question: What about the “Long-term adequate relief of IBS symptoms, post-treatment follow-up” value (through week 16, RFX 550 mg BID, subjects with adequate relief by Week 4) of the same molecule?
Answer: 62.3%

— patent US20130184302A1, “METHODS FOR TREATING IRRITABLE BOWEL SYNDROME (IBS) AND INFECTIONS” (priority 2011, published 2013)
